Data reported in US20260085283A1, “STEM CELL-DERIVED GASTRULOID MODEL, METHOD FOR CONSTRUCTING SAME, AND USE” (Innovation Center of Suzhou Nanjing Medical University, priority 2022, published 2026).

Tested on: gastruloid model induced from human induced pluripotent stem cells DYR0100
Assay: Thalidomide dosing of the in vitro gastruloid induction model (early embryonic teratogenesis model test)
[1] = day 7, dosed group (5 μM and 10 μM) compared with the control group
[2] = day 7, with the increase of dosed concentration (5 μM, 10 μM), significant statistical difference vs blank control and dimethyl sulfoxide control
[3] = day 7 samples, dosed group (5 μM and 10 μM) compared with the control group

Protocol: Two gradients of 5 μM and 10 μM were selected, and a blank control group and a dimethyl sulfoxide group (with thalidomide solvent) were added for testing.
When human induced pluripotent stem cells DYR0100 grew to 80-90% confluence, TrypLE Select was used to digest the cells into single cells, and the cells were resuspended in PBS to obtain a cell suspension 1; cell suspension 1 containing 9.0×10^4 cells was taken, 2 mL of the G1ER culture medium containing Y-27632 was added to resuspend the cells, and then 5 μM, 10 μM of 1% % thalidomide, dimethyl sulfoxide solution and a blank control group were added respectively, a total of 4 groups, to obtain a cell suspension 2; the cell suspension 2 was inoculated into a well of an Agreewell 400™ culture dish coated with the anti-adhesion solution (Anti-adhesion rinsing Solution) in advance. After centrifugation at 800 rpm for 2 minutes using a horizontal centrifuge, the cell amount per microwell was 50-75 cells (each well of the Agreewell 400™ culture dish has 1200 microwells, that is, the cell amount in each microwell was 9.0×10^4/1200=75 cells).
On day 2 of the culture, half of the culture medium was replaced with the G1ER culture medium, and 5 μM and 10 μM of 1% % thalidomide, dimethyl sulfoxide solution and a blank control were added respectively. Half of the culture medium was replaced every day until day 3 of the culture.
When the first stage of induction was completed, samples were taken from the four groups, and recorded with white light, then 4% paraformaldehyde was used for fixation for 30 minutes, and relevant immunofluorescence staining was performed for statistical verification.
On day 3 of the culture, 1.75 mL of the first-stage GIER culture medium was discarded, and the second-stage G2EE culture medium was added slowly along the wall, 5 μM and 10 μM of 1% thalidomide, dimethyl sulfoxide solution and a blank control were added respectively, to prevent the formed gastruloids from floating up from the microwells and then fusing.
On day 4 of the culture, 1.75 mL of the second-stage G2EE culture medium was discarded, and the third-stage aG2EE culture medium was added slowly along the wall, and 5 μM and 10 μM of 1% % thalidomide, dimethyl sulfoxide solution and a blank control were added respectively, to prevent the formed gastruloids from floating up from the microwells and then fusing.
On day 5 of the culture, 1.75 mL of the third-stage aG2EE culture medium was discarded, and the fourth-stage bG2EE culture medium was added slowly along the wall, and 5 μM and 10 μM of 1% % thalidomide, dimethyl sulfoxide solution and a blank control were added respectively, to prevent the formed gastruloids from floating up from the microwells and then fusing. After 24 hours, the culture medium was continuously replaced by 1.75 mL (the bG2EE culture medium) and cultured until day 7.
When the four-stage induction was completed, samples were taken from the four groups, and recorded the white light, then 4% paraformaldehyde was used to fix for 30 minutes, and relevant cell nucleus staining was performed for statistical verification.

O=C1CCC(N2C(=O)c3ccccc3C2=O)C(=O)N1 (stereo not drawn) [Thalidomide]
formation of amniotic cavity and yolk sac (DAPI staining) [1]: could not be formed | internal structure of the gastruloids (DAPI staining of cell nucleus) [1]: relatively disordered | cell amount of the single gastruloid [2]: decreased | volume of the single gastruloid [2]: decreased | internal cavity structure of the gastruloids (white light results) [3]: absent | volume of the gastruloids (white light results) [3]: reduced volume
